# Laboratory results from US20240269139A1, “COMPOUNDS FOR TARGETED PROTEIN DEGRADATION OF KINASES” (DANA-FARBER CANCER INSTITUTE, INC., priority 2020, published 2024).
# Read-outs that look alike come from different tables or passages of the source.
# How the values were obtained:
# Type in all cases: cell-based
# [1] = target: T1, protein kinases (human kinome) (Homo sapiens, UniProt P42680); conditions: TEC (P42680)
# T1 sequence (P42680 1-631): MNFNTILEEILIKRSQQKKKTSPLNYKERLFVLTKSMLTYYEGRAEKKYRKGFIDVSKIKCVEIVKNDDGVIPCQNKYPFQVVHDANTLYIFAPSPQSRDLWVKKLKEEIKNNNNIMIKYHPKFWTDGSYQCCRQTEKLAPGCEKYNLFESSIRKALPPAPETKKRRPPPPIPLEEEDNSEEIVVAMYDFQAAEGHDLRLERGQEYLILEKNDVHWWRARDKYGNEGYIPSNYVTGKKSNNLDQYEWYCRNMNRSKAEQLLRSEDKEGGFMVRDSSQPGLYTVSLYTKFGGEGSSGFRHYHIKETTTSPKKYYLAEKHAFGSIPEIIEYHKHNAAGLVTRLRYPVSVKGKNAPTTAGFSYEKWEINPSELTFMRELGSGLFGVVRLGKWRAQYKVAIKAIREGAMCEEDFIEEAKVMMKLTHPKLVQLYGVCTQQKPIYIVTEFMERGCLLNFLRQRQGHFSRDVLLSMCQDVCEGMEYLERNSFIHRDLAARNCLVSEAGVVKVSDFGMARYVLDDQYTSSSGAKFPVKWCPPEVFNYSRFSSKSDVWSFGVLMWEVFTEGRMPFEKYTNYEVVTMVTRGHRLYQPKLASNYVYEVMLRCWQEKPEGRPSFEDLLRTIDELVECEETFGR
# [2] = target: protein kinases (human kinome) (Homo sapiens, UniProt Q13164); conditions: MAPK7 (Q13164-1)
# [3] = target: T2, protein kinases (human kinome) (Homo sapiens, UniProt Q08881)
# T2 sequence (Q08881 1-620): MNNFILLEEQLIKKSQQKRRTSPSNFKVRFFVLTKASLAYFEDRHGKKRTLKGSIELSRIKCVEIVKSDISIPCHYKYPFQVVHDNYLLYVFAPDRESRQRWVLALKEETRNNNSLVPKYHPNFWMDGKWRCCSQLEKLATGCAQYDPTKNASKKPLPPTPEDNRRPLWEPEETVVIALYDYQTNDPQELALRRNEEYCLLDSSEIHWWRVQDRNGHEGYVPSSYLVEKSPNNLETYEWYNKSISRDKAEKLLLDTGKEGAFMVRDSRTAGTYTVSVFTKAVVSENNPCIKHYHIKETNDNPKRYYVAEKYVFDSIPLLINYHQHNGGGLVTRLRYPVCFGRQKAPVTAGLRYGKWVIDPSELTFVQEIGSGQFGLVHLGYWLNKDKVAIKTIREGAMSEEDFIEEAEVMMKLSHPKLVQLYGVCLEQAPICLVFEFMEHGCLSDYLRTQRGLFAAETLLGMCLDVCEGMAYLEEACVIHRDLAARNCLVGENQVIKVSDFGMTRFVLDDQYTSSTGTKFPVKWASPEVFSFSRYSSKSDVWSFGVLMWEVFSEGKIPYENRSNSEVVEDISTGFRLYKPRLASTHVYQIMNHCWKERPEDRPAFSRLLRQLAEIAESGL
# [4] = target: protein kinases (human kinome) (Homo sapiens, UniProt P49840); conditions: GSK3A P49840
# [5] = target: protein kinases (human kinome) (Homo sapiens, UniProt Q9BYT3); conditions: STK33 (Q9BYT3-1), experiment wp146
# [6] = experiment wp131, direction of change down
# [7] = experiment wp016, direction of change down
# [8] = experiment wp137, direction down
# Sequence of protein kinases (human kinome) (Homo sapiens, UniProt P49840) (P49840 whole entry): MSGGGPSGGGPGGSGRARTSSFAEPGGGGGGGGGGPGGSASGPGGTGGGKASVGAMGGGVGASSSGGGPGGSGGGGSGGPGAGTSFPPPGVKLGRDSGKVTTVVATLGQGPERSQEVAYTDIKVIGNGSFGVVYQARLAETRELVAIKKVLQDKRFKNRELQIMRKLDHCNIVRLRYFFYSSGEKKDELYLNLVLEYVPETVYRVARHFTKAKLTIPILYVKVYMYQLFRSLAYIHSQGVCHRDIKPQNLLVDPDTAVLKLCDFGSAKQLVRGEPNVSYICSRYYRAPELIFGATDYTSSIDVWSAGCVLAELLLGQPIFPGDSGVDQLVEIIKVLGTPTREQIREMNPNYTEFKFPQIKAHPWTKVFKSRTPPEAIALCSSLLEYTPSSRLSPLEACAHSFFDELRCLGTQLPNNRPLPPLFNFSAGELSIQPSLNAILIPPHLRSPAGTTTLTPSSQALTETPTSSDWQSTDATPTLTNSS
# Sequence of protein kinases (human kinome) (Homo sapiens, UniProt Q13164) (Q13164 whole entry): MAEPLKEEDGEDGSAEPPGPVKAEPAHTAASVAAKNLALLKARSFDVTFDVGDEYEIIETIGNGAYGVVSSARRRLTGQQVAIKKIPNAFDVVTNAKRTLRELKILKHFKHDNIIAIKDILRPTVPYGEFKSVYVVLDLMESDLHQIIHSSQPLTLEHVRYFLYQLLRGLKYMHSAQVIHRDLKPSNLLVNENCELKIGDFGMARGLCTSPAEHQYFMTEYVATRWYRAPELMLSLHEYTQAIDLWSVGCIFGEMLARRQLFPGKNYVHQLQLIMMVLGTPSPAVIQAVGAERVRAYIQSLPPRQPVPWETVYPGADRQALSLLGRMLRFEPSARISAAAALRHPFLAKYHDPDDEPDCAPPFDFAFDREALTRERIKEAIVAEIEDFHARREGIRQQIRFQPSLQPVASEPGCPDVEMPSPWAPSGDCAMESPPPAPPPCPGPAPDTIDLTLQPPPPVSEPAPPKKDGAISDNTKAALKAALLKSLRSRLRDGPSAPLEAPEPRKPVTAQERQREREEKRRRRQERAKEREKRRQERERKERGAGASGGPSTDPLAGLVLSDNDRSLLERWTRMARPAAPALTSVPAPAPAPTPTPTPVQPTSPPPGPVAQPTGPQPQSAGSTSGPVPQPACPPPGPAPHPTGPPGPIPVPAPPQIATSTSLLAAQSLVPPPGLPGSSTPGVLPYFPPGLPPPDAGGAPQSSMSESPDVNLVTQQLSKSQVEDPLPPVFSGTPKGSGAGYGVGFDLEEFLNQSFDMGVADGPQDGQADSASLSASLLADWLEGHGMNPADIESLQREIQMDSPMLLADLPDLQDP
# Sequence of protein kinases (human kinome) (Homo sapiens, UniProt Q9BYT3) (Q9BYT3 whole entry): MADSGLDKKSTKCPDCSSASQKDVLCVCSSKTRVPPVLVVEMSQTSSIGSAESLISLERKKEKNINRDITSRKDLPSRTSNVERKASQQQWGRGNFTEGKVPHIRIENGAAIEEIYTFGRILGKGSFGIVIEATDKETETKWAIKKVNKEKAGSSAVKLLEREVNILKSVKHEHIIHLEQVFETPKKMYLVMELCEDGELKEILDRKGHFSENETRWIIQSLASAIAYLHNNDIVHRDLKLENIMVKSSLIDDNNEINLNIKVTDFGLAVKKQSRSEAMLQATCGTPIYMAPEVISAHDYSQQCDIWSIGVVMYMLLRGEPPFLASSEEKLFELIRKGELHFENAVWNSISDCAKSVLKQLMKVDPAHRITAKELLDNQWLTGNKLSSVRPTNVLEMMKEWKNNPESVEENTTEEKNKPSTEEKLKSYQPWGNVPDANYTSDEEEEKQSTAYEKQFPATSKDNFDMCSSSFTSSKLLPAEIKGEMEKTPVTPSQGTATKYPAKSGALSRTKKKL
smiles,measurement,setting,value
"Cc1ccc(NC(=O)c2cccc(C(F)(F)F)c2)cc1N1Cc2cnc(Nc3ccc(N4CCN(Cc5cn(CCCCCOc6cccc7c6C(=O)N(C6CCC(=O)NC6=O)C7=O)nn5)CC4)nc3)nc2N(C)C1=O (stereo not drawn) [DB0646, N-(3-(7-((6-(4-((1-(5-((2-(2,6-Dioxopiperidin-3-yl)-1,3-dioxoisoindolin-4-yl)oxy)pentyl)-1H-1,2,3-triazol-4-yl)methyl)piperazin-1-v)pyridin-3-yl)amino)-1-methyl-2-oxo-1,4-dihydropyrimido[4,5-d]pyrimidin-3(2H)-yl)-4-methylphenyl)-3-(trifluoromethyl)benzamide]",logFC,[1]; experiment wp107,−0.8282
same,logFC,"[1]; experiment wp107, direction down",−0.8282
Cc1ccc(NC(=O)c2cccc(C(F)(F)F)c2)cc1N1Cc2cnc(Nc3ccc(N4CCN(CCCCC(=O)N[C@H](C(=O)N5C[C@H](O)C[C@H]5C(=O)N[C@@H](C)c5ccc(-c6scnc6C)cc5)C(C)(C)C)CC4)nc3)nc2N(C)C1=O [DB1113],logFC,[2]; experiment wp168,−0.766
same,logFC,"[2]; experiment wp168, direction down",−0.766
Cc1ncsc1-c1ccc([C@H](C)NC(=O)[C@@H]2C[C@@H](O)CN2C(=O)[C@@H](NC(=O)CCOCCOCCN2CCN(c3ccc(Nc4ncc(Cl)c(Nc5ccccc5S(=O)(=O)C(C)C)n4)cc3)CC2)C(C)(C)C)cc1 [FMF.06.098.1],logFC ITK (Q08881),[3]; Experiment wp108,−0.3557
same,logFC ITK (Q08881),"[3]; experiment wp108, direction of change down",−0.3557
same,logFC ITK (Q08881),[3]; experiment wp131,−0.3625
same,logFC ITK (Q08881),[3]; [6],−0.3625
same,logFC,[2]; experiment wp108,−0.4347
same,logFC,"[2]; experiment wp108, direction down",−0.4347
same,logFC,[2]; experiment wp131,−0.4637
same,logFC,"[2]; experiment wp131, direction down",−0.4637
O=C1CCC(N2C(=O)c3cccc(NCCCCCCCCN4CCC(NC(=O)c5[nH]ncc5NC(=O)c5c(Cl)cccc5Cl)CC4)c3C2=O)C(=O)N1 (stereo not drawn) [MFH.5.126.1],logFC,[4]; experiment wp076,−0.7531
same,logFC GSK3A,[4]; experiment wp076,−0.7531
CC(C)S(=O)(=O)c1ccccc1Nc1nc(Nc2ccc(N3CCN(CCOCCNC(=O)CNc4ccc5c(c4)C(=O)N(C4CCC(=O)NC4=O)C5=O)CC3)cc2)ncc1Cl (stereo not drawn) [SK.3.93],logFC ITK (Q08881),[3]; experiment wp016,−2.136
same,logFC ITK (Q08881),[3]; [7],−2.136
CC(C)S(=O)(=O)c1ccccc1Nc1nc(Nc2ccc(N3CCN(CCOCCOCCNC(=O)CNc4cccc5c4C(=O)N(C4CCC(=O)NC4=O)C5=O)CC3)cc2)ncc1Cl (stereo not drawn) [TL12.186],logFC ITK (Q08881),[3]; experiment wp016,−2.342
same,logFC ITK (Q08881),[3]; [7],−2.342
same,logFC ITK (Q08881),[3]; experiment wp131,−2.292
same,logFC ITK (Q08881),[3]; [6],−2.292
same,logFC ITK (Q08881),[3]; experiment wp137,−1.973
same,logFC ITK (Q08881),"[3]; experiment wp137, direction of change down",−1.973
same,logFC,[1]; experiment wp137,−2.11
same,logFC,[1]; [8],−2.11
same,logFC,[2]; experiment wp137,−0.3334
same,logFC,[2]; [8],−0.3334
CC(C)S(=O)(=O)c1ccccc1Nc1nc(Nc2ccc(N3CCN(CCOCCOCCC(=O)NCCNc4cccc5c4CN(C4CCC(=O)NC4=O)C5=O)CC3)cc2)ncc1Cl (stereo not drawn) [TL13.97],logFC,"[3]; ITK (Q08881) protein abundance, degrader vs DMSO, direction of change down",−2.28
same,logFC ITK (Q08881),[3]; experiment wp137,−2.28
same,logFC,[1]; experiment wp137,−1.712
same,logFC,[1]; [8],−1.712
NC(=O)c1c(F)cccc1Nc1nc(Nc2ccc(S(=O)(=O)NCCOCCOCCOCCOCCNc3cccc4c3C(=O)N(C3CCC(=O)NC3=O)C4=O)cc2)ncc1Br (stereo not drawn) [TMX.02.138],logFC,[5],−1.335
same,logFC,[5]; direction down,−1.335
same,logFC,[4]; experiment wp146,−0.8225
same,logFC GSK3A,[4]; experiment wp146,−0.8225
Cc1cc(Nc2ncc(Br)c(Nc3cccc(F)c3C(N)=O)n2)ccc1S(=O)(=O)NCCOCCOCCOCCOCCNc1cccc2c1C(=O)N(C1CCC(=O)NC1=O)C2=O (stereo not drawn) [TMX.02.174],logFC,[5],−1.763
same,logFC,[5]; direction down,−1.763
same,logFC,[1]; experiment wp146,−0.9362
same,logFC,"[1]; experiment wp146, direction down",−0.9362
same,logFC,[4]; experiment wp146,−0.7133
same,logFC GSK3A,[4]; experiment wp146,−0.7133
Nc1ncc(-c2ccc(S(=O)(=O)N(CCCNC(=O)CCOCCOCCOCCOCCOCCNc3cccc4c3C(=O)N(C3CCC(=O)NC3=O)C4=O)C3CC3)cc2)cc1-c1ccc2c(c1)CCNC2=O (stereo not drawn) [WH.10417.099],logFC,[4]; experiment wp056,−0.5169
same,logFC GSK3A,[4]; experiment wp056,−0.5169
same,logFC,[4]; experiment wp103,−0.443
same,logFC GSK3A,[4]; experiment wp103,−0.443
same,logFC,[4]; experiment wp105,−0.4499
same,logFC GSK3A,[4]; experiment wp105,−0.4499
same,logFC,[4]; experiment wp107,−0.4697
same,logFC GSK3A,[4]; experiment wp107,−0.4697
